Experimental data taken from patent US5071749A, “Glycopetide antibiotic PA-45052-B” (Shionogi & Co., Ltd., priority 1987, dated 1991).
Values after ≈ are worked out from the molar mass of the structure shown.

Experiments:
[1] = test system: Cl. perfringens FC 2208/75; format: cell-based, Clostridium perfringens; details: strain FC 2208/75, origin cow; GAM agar, anaerobic, 37° C., 24 hours
[2] = test system: Streptococcus faecalis SR 1004; assay: In vitro antibacterial activity, agar dilution method (MIC); details: horse serum 0.5%, 37° C., 18-20 hrs
[3] = test system: Cl. perfringens NCTC-8798; format: cell-based, Clostridium perfringens; details: strain NCTC-8798, origin cow; GAM agar, anaerobic, 37° C., 24 hours
[4] = test system: Staphylococcus aureus SR3626; assay: In vitro antibacterial activity, agar dilution method (MIC); format: cell-based; details: Staphylococcus aureus SR3626, methicillin-resistant, 37° C., 18-20 hrs
[5] = test system: Streptococcus epidermidis ATCC 14490; assay: as above; details: 37° C., 18-20 hrs
[6] = test system: Staphylococcus aureus SR1626; assay: as above; format: cell-based; details: Staphylococcus aureus SR1626, methicillin-resistant, 37° C., 18-20 hrs
Cl. perfringens 6B-10 = format: cell-based, Clostridium perfringens; details: strain 6B-10, origin cow; GAM agar, anaerobic, 37° C., 24 hours
[7] = test system: Streptococcus pneumoniae Type I; assay: In vitro antibacterial activity, agar dilution method (MIC); details: horse serum 0.5%, 37° C., 18-20 hrs
Cl. perfringens SP07 = format: cell-based, Clostridium perfringens; details: strain SP07, origin chicken; GAM agar, anaerobic, 37° C., 24 hours
Cl. perfringens 3C-01 = format: cell-based, Clostridium perfringens; details: strain 3C-01, origin chicken; GAM agar, anaerobic, 37° C., 24 hours
[8] = test system: Staphylococcus aureus PDA 209P JC-1; assay: In vitro antibacterial activity, agar dilution method (MIC); details: 37° C., 18-20 hrs
[9] = test system: Staphylococcus aureus SMITH; assay: as above; details: 37° C., 18-20 hrs
Cl. perfringens 9C-02 = format: cell-based, Clostridium perfringens; details: strain 9C-02, origin chicken; GAM agar, anaerobic, 37° C., 24 hours
[10] = test system: Cl. perfringens NCTC-8239; format: cell-based, Clostridium perfringens; details: strain NCTC-8239, origin cow; GAM agar, anaerobic, 37° C., 24 hours
[11] = test system: Staphylococcus aureus SR3131; assay: In vitro antibacterial activity, agar dilution method (MIC); format: cell-based; details: Staphylococcus aureus SR3131, methicillin-resistant, 37° C., 18-20 hrs
[12] = test system: Streptococcus pneumoniae Type I; assay: Antibacterial activity in vivo, mouse intraperitoneal infection (ED50); details: Slc-ICR female mice, i.p. inoculation of Streptococcus pneumoniae Type I; s.c. dosing 1 and 5 hours later; survival on day 7
Experimental: (§1) Test method: The test organism is intraperitoneally inoculated to Slc-ICR female mice (8 mice per group), and PA-45052-A, -B or -C (two-fold dilution) is subcutaneously administered twice one hour later and 5 hours later.
(§2) Results: The 50% effective dose (ED50) is calculated from the survival rate on day 7.

[13] = test system: Staphylococcus aureus SR 3637; assay: as above; details: Slc-ICR female mice, i.p. inoculation of S. aureus SR 3637 (methicillin-resistant); s.c. dosing 1 and 5 hours later; survival on day 7
Experimental: as §1, §2

[14] = test system: Staphylococcus aureus SR 2030; assay: as above; details: Slc-ICR female mice, i.p. inoculation of S. aureus SR 2030 (methicillin-resistant); s.c. dosing 1 and 5 hours later; survival on day 7
Experimental: as §1, §2

[15] = test system: Streptococcus pyogenes C-203; assay: as above; details: Slc-ICR female mice, i.p. inoculation of Streptococcus pyogenes C-203; s.c. dosing 1 and 5 hours later; survival on day 7
Experimental: as §1, §2

mouse = assay: LD50 on injection to mouse; format: in vivo
Source text: The growth-stimulating agent of this invention not only promotes growth of animals but also improves feed efficiency. Naturally, it is effective against infections by bacteria.

Cl. perfringens CW-1970 = format: cell-based, Clostridium perfringens; details: strain CW-1970, origin cow; GAM agar, anaerobic, 37° C., 24 hours
[16] = test system: Staphylococcus aureus ATCC 25923; assay: In vitro antibacterial activity, agar dilution method (MIC); details: 37° C., 18-20 hrs
Cl. perfringens 02441 = format: cell-based, Clostridium perfringens; details: strain 02441, origin chicken; GAM agar, anaerobic, 37° C., 24 hours
Cl. perfringens S-79 = format: cell-based, Clostridium perfringens; details: strain S-79, origin cow; GAM agar, anaerobic, 37° C., 24 hours
[17] = test system: Staphylococcus aureus SR14; assay: In vitro antibacterial activity, agar dilution method (MIC); format: cell-based; details: Staphylococcus aureus SR14, penicillin-resistant, 37° C., 18-20 hrs
[18] = test system: Streptococcus agalactiae SR 1247; assay: as above; details: horse serum 0.5%, 37° C., 18-20 hrs
[19] = test system: Streptococcus pyogenes C-203; assay: as above; details: horse serum 0.5%, 37° C., 18-20 hrs
broiler chicks = assay: Growth-stimulation test on chicks; format: in vivo, broiler chicks (arbor acre); details: 20 ppm in feed for 14 days; for FCR: feed efficiency (B/A) / FCR (%), index when control group is 100 / Increase of weight (%), index when control group is 100: broiler chicks; for Increase of weight A (M = g) ± SD (average increase of weight): broiler chicks 8 to 22 days old, 24 chicks; for FCR (%), index when control group is 100 / Increase of weight (%), index when control group is 100: control = 100
Source text: The growth-stimulating activities of PA-45052-A, PA-45052-B and PA-45052-E on broiler chicks (arbor acre, 8 days old) were investigated by using the known antibiotic thiopeptin as a referential agent. Chicks were fed with a feed mush (crude protein (CP) concentration 18%, each agent's concentration 20 ppm, not supplemented with other antibiotics) for 14 days in the battery brooders. The method of this experiment was as follows. After chicks were fed by floor pen with a feed (CP concentration 23%) from 0 to 8 days, they were divided into 5 groups (24 chicks a group, 12 male and 12 female) in such a way that the average weights of the groups are equal. To each group was administered PA-45052-A (20 ppm), PA-45052-B (20 ppm), PA-45052-E (20 ppm), thiopeptin (20 ppm) or only a feed (CP 18%) for 14 days. Each group was fed in cages (435×600×410 mm, each cage has 6-7 chicks) at 26°±2° C. for 14 days (up to 22 days old). Effectiveness was estimated from the increase of weight and the feed efficiency.

[20] = test system: Cl. perfringens NCTC-10239; format: cell-based, Clostridium perfringens; details: strain NCTC-10239, origin cow; GAM agar, anaerobic, 37° C., 24 hours

Compound	MIC [1] [µg/mL]	MIC [2] [µg/mL]	MIC [3] [µg/mL]	MIC [4] [µg/mL]	MIC [5] [µg/mL]	MIC [6] [µg/mL]	MIC (Cl. perfringens 6B-10) [µg/mL]	MIC [7] [µg/mL]	MIC (Cl. perfringens SP07) [µg/mL]	MIC [8] [µg/mL]	MIC [9] [µg/mL]	MIC [11] [µg/mL]	MIC [16] [µg/mL]	MIC [17] [µg/mL]	MIC [18] [µg/mL]	MIC [19] [µg/mL]	FCR: feed efficiency (B/A) (broiler chicks)	Increase of weight A (M = g) ± SD (average increase of weight) (broiler chicks) [g]	FCR (%), index when control group is 100 (broiler chicks) [%]	Increase of weight (%), index when control group is 100 (broiler chicks) [%]	further results
CNC(CC(C)C)C(=O)NC1C(=O)NC(CC(N)=O)C(=O)NC2C(=O)NC3C(=O)NC(C(=O)NC(C(=O)O)c4cc(O)cc(O)c4-c4cc3ccc4O)C(OC3CC(C)(N)C(O)C(C)O3)c3ccc(c(Cl)c3)Oc3cc2cc(c3OC2OC(CO)C(O)C(O)C2OC2CC(C)(N)C(O)C(C)O2)Oc2ccc(cc2Cl)C1O (centres unmarked) [PA-45052-A]	0.39 (≈ 0.245 µM)	0.78 (≈ 0.49 µM)	0.39 (≈ 0.245 µM)	0.39 (≈ 0.245 µM)	0.78 (≈ 0.49 µM)	0.39 (≈ 0.245 µM)	0.39 (≈ 0.245 µM)	0.1 (≈ 0.0628 µM)	0.2 (≈ 0.126 µM)	0.2 (≈ 0.126 µM)	0.39 (≈ 0.245 µM)	0.39 (≈ 0.245 µM)	0.39 (≈ 0.245 µM)	0.39 (≈ 0.245 µM)	0.2 (≈ 0.126 µM)	0.2 (≈ 0.126 µM)	1.63	440.9 ± 60.4	95.3	105.9	MIC (Cl. perfringens 3C-01): 0.78 µg/mL (≈ 0.49 µM); MIC (Cl. perfringens 9C-02): 0.39 µg/mL (≈ 0.245 µM); MIC [10]: 0.2 µg/mL (≈ 0.126 µM); ED50 (50% effective dose) [12]: 0.19 mg/kg/dose; ED50 (50% effective dose) [13]: 1.91 mg/kg/dose; ED50 (50% effective dose) [14]: 0.99 mg/kg/dose; ED50 (50% effective dose) [15]: 0.14 mg/kg/dose; LD50 (mouse): > 1000 mg/kg; MIC (Cl. perfringens CW-1970): 0.39 µg/mL (≈ 0.245 µM); MIC (Cl. perfringens 02441): 0.39 µg/mL (≈ 0.245 µM); MIC (Cl. perfringens S-79): 0.39 µg/mL (≈ 0.245 µM); MIC [20]: 0.2 µg/mL (≈ 0.126 µM)
CNC(CC(C)C)C(=O)NC1C(=O)NC(CC(N)=O)C(=O)NC2C(=O)NC3C(=O)NC(C(=O)NC(C(=O)O)c4cc(O)cc(O)c4-c4cc3ccc4O)C(OC3CC(C)(N)C(O)C(C)O3)c3ccc(c(Cl)c3)Oc3cc2cc(c3OC2OC(CO)C(O)C(O)C2O)Oc2ccc(cc2Cl)C1O (centres unmarked) [PA-45052-B]	0.39 (≈ 0.269 µM)	0.78 (≈ 0.538 µM)	0.39 (≈ 0.269 µM)	0.39 (≈ 0.269 µM)	1.56 (≈ 1.08 µM)	0.78 (≈ 0.538 µM)	0.39 (≈ 0.269 µM)	0.2 (≈ 0.138 µM)	0.2 (≈ 0.138 µM)	0.39 (≈ 0.269 µM)	0.78 (≈ 0.538 µM)	0.39 (≈ 0.269 µM)	0.39 (≈ 0.269 µM)	0.78 (≈ 0.538 µM)	0.39 (≈ 0.269 µM)	0.2 (≈ 0.138 µM)	1.60	438.5 ± 51.6	93.6	105.4	MIC (Cl. perfringens 3C-01): 0.78 µg/mL (≈ 0.538 µM); MIC (Cl. perfringens 9C-02): 0.39 µg/mL (≈ 0.269 µM); MIC [10]: 0.2 µg/mL (≈ 0.138 µM); ED50 (50% effective dose) [12]: 0.38 mg/kg/dose; ED50 (50% effective dose) [13]: 2.84 mg/kg/dose; ED50 (50% effective dose) [14]: 1.45 mg/kg/dose; ED50 (50% effective dose) [15]: 0.44 mg/kg/dose; LD50 (mouse): 1439 mg/kg; MIC (Cl. perfringens CW-1970): 0.39 µg/mL (≈ 0.269 µM); MIC (Cl. perfringens 02441): 0.39 µg/mL (≈ 0.269 µM); MIC (Cl. perfringens S-79): 0.39 µg/mL (≈ 0.269 µM); MIC [20]: 0.2 µg/mL (≈ 0.138 µM)
CC(C)CC(C(=O)NC1C(=O)NC(CC(N)=O)C(=O)NC2C(=O)NC3C(=O)NC(C(=O)NC(C(=O)O)c4cc(O)cc(O)c4-c4cc3ccc4O)C(OC3CC(C)(N)C(O)C(C)O3)c3ccc(c(Cl)c3)Oc3cc2cc(c3OC2OC(CO)C(O)C(O)C2OC2CC(C)(N)C(O)C(C)O2)Oc2ccc(cc2Cl)C1O)N(C)C (centres unmarked) [PA-45052-D]	–	0.78 (≈ 0.486 µM)	–	0.78 (≈ 0.486 µM)	0.78 (≈ 0.486 µM)	0.39 (≈ 0.243 µM)	–	0.2 (≈ 0.124 µM)	–	0.2 (≈ 0.124 µM)	0.39 (≈ 0.243 µM)	0.39 (≈ 0.243 µM)	0.78 (≈ 0.486 µM)	0.39 (≈ 0.243 µM)	0.2 (≈ 0.124 µM)	0.2 (≈ 0.124 µM)	–	–	–	–	–
CC(C)CC(C(=O)NC1C(=O)NC(CC(N)=O)C(=O)NC2C(=O)NC3C(=O)NC(C(=O)NC(C(=O)O)c4cc(O)cc(O)c4-c4cc3ccc4O)C(OC3CC(C)(N)C(O)C(C)O3)c3ccc(c(Cl)c3)Oc3cc2cc(c3OC2OC(CO)C(O)C(O)C2O)Oc2ccc(cc2Cl)C1O)N(C)C (centres unmarked) [PA-45052-E]	–	1.56 (≈ 1.07 µM)	–	0.78 (≈ 0.533 µM)	3.13 (≈ 2.14 µM)	0.78 (≈ 0.533 µM)	–	0.39 (≈ 0.267 µM)	–	0.39 (≈ 0.267 µM)	0.78 (≈ 0.533 µM)	0.78 (≈ 0.533 µM)	0.78 (≈ 0.533 µM)	0.78 (≈ 0.533 µM)	0.39 (≈ 0.267 µM)	0.39 (≈ 0.267 µM)	–	–	–	–	–
thiopeptin [reference compound]	–	–	–	–	–	–	–	–	–	–	–	–	–	–	–	–	1.62	431.5 ± 53.4	94.7	103.7	–
